Results as given in PMC3871601, “Potential Cooperations between Odorant-Binding Proteins of the Scarab Beetle Holotrichia oblita Faldermann (Coleoptera: Scarabaeidae)” (PLoS ONE, 2013).
Where two headings read alike, the source gives them in different places.

Experiments:
[1] = tested on: HoblOBP2 and HoblOBP4 mixtures; test: Competitive binding assay with binary protein mixture OBP2-OBP4; design: species or system Holotrichia oblita; details: HoblOBP2 and HoblOBP4 equimolar mixture and 1-NPN 2 µM, ligand 4–40 µM
Experimental: (§1) It is well known that the concentration of OBPs (also likely CSPs) in the sensillum lymph of the insect is extremely high (reportedly 10 mM). A hypothesis has been proposed that OBPs (or CSPs) homodimers or heterodimers might form. Thus, all binary potential intersections with four HoblOBPs and two HoblCSPs were tested in competitive binding assays to determine the existence of dimers. These experiments assumed that the protein was 100% active, a stoichiometric ratio between the protein and ligand was 1:1 at saturation and the two proteins were present in equimolar amounts. The binding curves and Scatchard plots of OBP3 and OBP4 mixture or CSP1 and CSP2 mixture were consistent with the functions of the individual proteins. However, the binding curve of the OBP2 and OBP4 mixture or OBP1 and OBP2 mixture presented a different tendency from those obtained with the individual proteins. […] Thus, we speculated that the decreased binding velocity was the main cause underlying this phenomenon. […] Such binding of the OBP2 and OBP4 mixture or OBP1 and OBP2 mixture in H. oblita was consistent with the OBP1 and OBP4 mixture in A. gambiae. In particular, some experiments also indicated interactions between OBP1 and OBP4 in A. gambiae. Thus, the hypothesis on a potential interaction between OBP2 and OBP4 (or OBP1 and OBP2) in H. oblita was proposed.
(§2) Figure 8 Competitive binding curves of representative ligands to binary protein mixtures OBP2-OBP4 and OBP1-OBP2 in H. oblita. The chemical structures of the ligands are shown on the right. A mixture of the proteins (equimolar amounts) and 1-NPN with both concentration of 2 µM in Tris-buffer was titrated with 1 mM solution of each competing ligand to final concentrations of 4–40 µM.
(§3) The 2 µM protein solution was dissolved in 50 mM Tris-HCl buffer with pH 7.4, and the ligands were dissolved in chromatographically pure methanol as a 1 mM stock solution. 1-NPN was dissolved in chromatographically pure methanol as a 1 mM stock solution. The protein solution was titrated to measure the protein’s affinity for the probe by adding aliquots of 1-NPN stock solution to final concentrations of 2 to 20µM.

[2] = tested on: HoblOBP2; design: method as in PMID 21852709; details: HoblOBP2 alone; ref [13]; cited from earlier work
[3] = biological target: T1, HoblOBP3 (Holotrichia oblita, UniProt G9BWQ7); test: biochemical; format: binding
T1 sequence (G9BWQ7 entry or part of it): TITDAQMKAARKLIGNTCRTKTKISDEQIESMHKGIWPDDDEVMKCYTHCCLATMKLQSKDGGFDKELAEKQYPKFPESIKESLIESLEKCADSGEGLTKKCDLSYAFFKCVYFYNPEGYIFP
Experimental: (§4) N-phenyl-1-naphthylamine (1-NPN) was selected as a probe to measure the affinity of the 1-NPN fluorescent ligand to proteins. A 1-cm light path quartz cuvette was used, and the fluorescence spectra were recorded on a Lengguang 970 CRT spectrofluorimeter (Shanghai Jingmi, China) at room temperature in a right angle configuration. The parameter selection was such that the slit widths for both excitation and emission were 10 nm. 1-NPN was excited at 337 nm and the emission spectra were recorded between 350 and 550 nm. Spectra were recorded using high-speed scanning.
(§5) The 2 µM protein solution was dissolved in 50 mM Tris-HCl buffer with pH 7.4, and the ligands were dissolved in chromatographically pure methanol as a 1 mM stock solution. 1-NPN was dissolved in chromatographically pure methanol as a 1 mM stock solution.
(§6) To determine the dissociation constants, the intensity values corresponding to the maximum fluorescence emission were plotted against free ligand concentrations. Assuming that the protein was 100% active and that the stoichiometric ratio between the protein and ligand was 1:1 at saturation, the bound ligand was determined from the fluorescence intensity values. The curves were then linearized using Scatchard plots. The K1-NPN values were estimated using GraphPad Prism 5 Software by nonlinear regression for a unique binding site. The dissociation constants of the competitors (Ki) were calculated from the corresponding IC50 values using the following equation: Ki = [IC50]/1+[1-NPN]/K1-NPN. […] [1-NPN] represented the free concentration of 1-NPN, and K1-NPN represented the dissociation constant of the complex protein/1-NPN [76].

[4] = biological target: T2, HoblOBP4 (Holotrichia oblita, UniProt G9BWQ8); test: biochemical; format: binding; details: for Affinity (in words): HoblOBP4 alone
T2 sequence (G9BWQ8 entry or part of it): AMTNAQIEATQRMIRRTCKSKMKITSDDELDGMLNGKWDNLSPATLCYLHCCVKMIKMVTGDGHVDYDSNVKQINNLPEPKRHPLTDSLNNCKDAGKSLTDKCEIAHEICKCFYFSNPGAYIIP
Experimental: as §4, §5, §6

[5] = tested on: HoblOBP1; design: method as in PMID 21852709; details: HoblOBP1 alone; ref [13]; cited from earlier work
[6] = tested on: HoblOBP1 and HoblOBP2 mixtures; test: Competitive binding assay with binary protein mixture OBP1-OBP2; design: species or system Holotrichia oblita; details: HoblOBP1 and HoblOBP2 equimolar mixture and 1-NPN 2 µM, ligand 4–40 µM; compared to either protein alone
Experimental: as §1, §2, §3

[7] = biological target: T2, HoblOBP4; test: Binding curve of 1-NPN and Scatchard plot, HoblOBP4; details: HoblOBP4 2 µM in Tris-buffer, 1-NPN 2–20 µM; read-out: Dissociation constant of 1-NPN
Experimental: as §4, with “scanning. Several types of compounds purchased from Sigma-Aldrich (Chemie Gmbh, Steinheim, Germany) were identified in the binding assays, and their purities were > 97% (Table 1). […]” for “scanning.”
(§7) To determine the dissociation constants, the intensity values corresponding to the maximum fluorescence emission were plotted against free ligand concentrations. Assuming that the protein was 100% active and that the stoichiometric ratio between the protein and ligand was 1:1 at saturation, the bound ligand was determined from the fluorescence intensity values. […] The dissociation constants of the competitors (Ki) were calculated from the corresponding IC50 values using the following equation: Ki = [IC50]/1+[1-NPN]/K1-NPN. […]

[8] = biological target: T1, HoblOBP3; test: Binding curve of 1-NPN and Scatchard plot, HoblOBP3; details: HoblOBP3 2 µM in Tris-buffer, 1-NPN 2–20 µM; read-out: Dissociation constant of 1-NPN
Experimental: as §4, with “scanning. Several types of compounds purchased from Sigma-Aldrich (Chemie Gmbh, Steinheim, Germany) were identified in the binding assays, and their purities were > 97% (Table 1). […]” for “scanning.”
as §7

[9] = pH 7.4, read-out: Int (fluorescence intensity as percent of the initial fluorescence)
[10] = HoblOBP3, dash = IC50 exceeded 50 µM, read-out: IC50 (dash)
[11] = HoblOBP3, dash = ligand whose IC50 exceeded 50 µM, Ki not given, read-out: Ki (dash)
[12] = HoblOBP4, dash = IC50 exceeded 50 µM, read-out: IC50 (dash)
[13] = HoblOBP4, dash = ligand whose IC50 exceeded 50 µM, Ki not given, read-out: Ki (dash)
[14] = pH 7.4, HoblOBP3, at the ligand concentration 24 µM, protein and 1-NPN both 2 µM, read-out: Int (fluorescence intensity as percent of the initial fluorescence)
[15] = pH 7.4, HoblOBP4, at the ligand concentration 24 µM, protein and 1-NPN both 2 µM, read-out: Int (fluorescence intensity as percent of the initial fluorescence)

Row | IC50 [3, 10] [µM] | Ki [3, 11] [µM] | IC50 [4, 12] [µM] | Ki [4, 13] [µM] | SMILES | Affinity (in words) [1] | Affinity (in words) [2] | IC50 [3] [µM] | Ki [3] [µM] | activity at 24 µM [3, 9] [%] | IC50 [4] [µM] | Ki [4] [µM] | Affinity (in words) [4] | activity at 24 µM [4, 9] [%] | Affinity (in words) [5] | Affinity (in words) [6] | Kd [7] [nM] | Kd [8] [nM] | activity at 24 µM [3, 14] [%] | activity at 24 µM [4, 15] [%]
1 | – | – | – | – | CC(=O)/C=C/C1=C(C)CCCC1(C)C [β-Ionone] | enhanced affinity | good afﬁnity | 8 | 5.2 | 36 | 15 | 11 | good afﬁnity | 42 | – | – | – | – | – | –
2 | – | – | – | – | CC1=CC[C@@H](C(C)(C)O)CC1 [α-Terpineol] | – | low-afﬁnity or non-afﬁnity | > 50 | > 50 | 71 | 35.5 | 26.1 | – | 53 | low-afﬁnity or non-afﬁnity | enhanced affinity | – | – | – | –
3 | – | – | – | – | C=CCc1ccc(O)c(OC)c1 [Eugenol] | good affinity | low-afﬁnity or non-afﬁnity | > 50 | > 50 | 97 | > 50 | > 50 | no afﬁnity | 57 | – | – | – | – | – | –
4 | – | – | – | – | c1ccc(Nc2cccc3ccccc23)cc1 [1-NPN, N-phenyl-1-naphthylamine] | – | – | – | – | – | – | – | – | – | – | – | 2780 | 1880 | – | –
5 | – | – | – | – | C=C[C@](C)(O)CCC=C(C)C [R-(-)-Linalool] | – | low-afﬁnity or non-afﬁnity | > 50 | > 50 | 73 | 20 | 14.7 | – | 46 | low-afﬁnity or non-afﬁnity | enhanced affinity | – | – | – | –
6 | > 50 | > 50 | > 50 | > 50 | CC1=C(/C=C/C(C)=C/C=C/C(C)=C/CO)C(C)(C)CCC1 [Retinol] | good affinity | low-afﬁnity or non-afﬁnity | – | – | – | – | – | no afﬁnity | – | – | – | – | – | – | –
7 | – | – | – | – | CCC/C=C/CO [trans-2-Hexenol] | – | low-afﬁnity or non-afﬁnity | > 50 | > 50 | – | 24 | 17.7 | – | – | low-afﬁnity or non-afﬁnity | enhanced affinity | – | – | 82 | 51
8 | – | – | – | – | O=C/C=C/c1ccccc1 [Cinnamaldehyde] | good affinity | low-afﬁnity or non-afﬁnity | 46 | 30 | 64 | 9 | 6.6 | good afﬁnity | 36 | – | – | – | – | – | –
9 | > 50 | > 50 | > 50 | > 50 | CCCCCCC=O [1-Heptanal] | – | low-afﬁnity or non-afﬁnity | – | – | – | – | – | – | – | low-afﬁnity or non-afﬁnity | enhanced affinity | – | – | 65 | 64
